Measured values: patent publication US8993574B2, “Pyrrole antifungal agents” (F2G Ltd, priority 2008, dated 2015)
Converted amounts (≈) assume the structure as drawn.

Legend:
Type in all cases: cell-based
Aspergillus niger [1] = test: MIC, YAG medium; settings: 24 h at 35° C, MIC banded into grades; for MIC: Aspergillus niger, read-out: MIC grade, A. niger
Procedure, shortened: (§1)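 Endpoint is growth at OD 485 nm after 24 h at 35° C, with MIC defined as the lowest drug level giving >70% inhibition relative to untreated wells and recorded in mg/L. Tests ran in YAG broth with 1−2×10^4 cfu/mL spore inocula from Sabouraud-grown cultures. Drug ranges were 50-0.05 mg/L, repeated at 0.5-0.0005 mg/L when needed.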

[2] = test system: Aspergillus fumigatus AF293; test: MIC, YAG medium; settings: 24 h at 35° C, MIC banded into grades; for MIC: Aspergillus fumigatus, read-out: MIC grade, A. fumigatus
Procedure, shortened: as §1

Aspergillus terreus AT4 [3] = test: MIC, YAG medium; settings: 24 h at 35° C, MIC banded into grades; for MIC: Aspergillus terreus, read-out: MIC grade, A. terreus
Procedure, shortened: as §1

Aspergillus terreus AT49 [4] = test: MIC, YAG medium; settings: 24 h at 35° C, MIC banded into grades; for MIC: Aspergillus terreus, read-out: MIC grade, A. terreus 49
Procedure, shortened: as §1

[5] = test system: Aspergillus fumigatus AF210; test: MIC, YAG medium; settings: 24 h at 35° C, MIC banded into grades; for MIC: Aspergillus fumigatus, read-out: MIC grade, A. fumigatus 210
Procedure, shortened: as §1

Aspergillus flavus [6] = test: MIC, YAG medium; settings: 24 h at 35° C, MIC banded into grades; for MIC: Aspergillus flavus, 24 h, read-out: MIC grade, A. flavus
Procedure, shortened: as §1

Aspergillus niger [7] = test: MIC, RPMI medium; settings: MIC banded into grades; for MIC: Aspergillus niger, read-out: MIC grade, A. niger
Procedure, shortened: (§2)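 RPMI (2% glucose, 0.135 M MOPS, pH 7.0) microdilution; drug 50-0.05 mg/L doubling series; inoculum 1−2×10^4 cfu/mL; 24-48 h, 35° C; OD485; MIC = lowest conc. with >80% inhibition vs drug-free control.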

[8] = test system: Aspergillus fumigatus AF293; test: MIC, RPMI medium; settings: for MIC: Aspergillus fumigatus, AF293, MIC banded into grades, read-out: MIC grade, A. fumigatus; for MIC grade, A. fumigatus: MIC banded into grades
Procedure, shortened: as §2

Aspergillus terreus AT4 [9] = test: MIC, RPMI medium; settings: for MIC: Aspergillus terreus, AT4, MIC banded into grades, read-out: MIC grade, A. terreus; for MIC grade, A. terreus: MIC banded into grades
Procedure, shortened: as §2

Aspergillus terreus AT49 [10] = test: MIC, RPMI medium; settings: for MIC: Aspergillus terreus, AT49, MIC banded into grades, read-out: MIC grade, A. terreus 49; for MIC grade, A. terreus 49: MIC banded into grades
Procedure, shortened: as §2

[11] = test system: Aspergillus fumigatus AF210; test: MIC, RPMI medium; settings: for MIC: Aspergillus fumigatus, AF210, MIC banded into grades, read-out: MIC grade, A. fumigatus 210; for MIC grade, A. fumigatus 210: MIC banded into grades
Procedure, shortened: as §2

Aspergillus flavus [12] = test: MIC, RPMI medium; settings: MIC banded into grades; for MIC: Aspergillus flavus, read-out: MIC grade, A. flavus
Procedure, shortened: as §2

MIC (Aspergillus niger [1]) | MIC [2] | MIC (Aspergillus terreus AT4 [3]) | MIC (Aspergillus terreus AT49 [4]) | MIC [5] | MIC (Aspergillus flavus [6]) | MIC (Aspergillus niger [7]) | MIC [8] | MIC (Aspergillus terreus AT4 [9]) | MIC (Aspergillus terreus AT49 [10]) | MIC [11] | MIC (Aspergillus flavus [12]) | Structure (SMILES) | other results
< 1 µg/mL | < 1 µg/mL | < 1 µg/mL | < 1 µg/mL | < 1 µg/mL | < 1 µg/mL | < 1 µg/mL | < 1 µg/mL | < 1 µg/mL | < 1 µg/mL | < 1 µg/mL | < 1 µg/mL | Cc1cc(-c2ccccc2)c(C(=O)C(=O)Nc2ccc(N3CCCCC3)c(F)c2)n1C [Example 115, 2-(1,5-Dimethyl-3-phenyl-1H-pyrrol-2-yl)-N-(3-fluoro-4-piperidin-1-yl-phenyl)-2-oxo-acetamide] | –
< 1 µg/mL | < 1 µg/mL | < 1 µg/mL | < 1 µg/mL | < 1 µg/mL | < 1 µg/mL | < 1 µg/mL | < 1 µg/mL | < 1 µg/mL | < 1 µg/mL | < 1 µg/mL | < 1 µg/mL | Cc1cc(C)nc(N2CCN(c3ccc(NC(=O)C(=O)c4c(C5CCOCC5)cc(C)n4C)cc3)CC2)c1 [Example 15, N-{4-[4-(4,6-Dimethyl-pyridin-2-yl)-piperazin-1-yl]-phenyl}-2-[1,5-dimethyl-3-(tetrahydro-pyran-4-yl)-1H-pyrrol-2-yl]-2-oxo-acetamide] | –
< 1 µg/mL | < 1 µg/mL | < 1 µg/mL | < 1 µg/mL | < 1 µg/mL | < 1 µg/mL | < 1 µg/mL | < 1 µg/mL | < 1 µg/mL | < 1 µg/mL | < 1 µg/mL | < 1 µg/mL | COCc1cc(-c2ccccc2)c(C(=O)C(=O)Nc2ccc(N3CCN(c4cc(C)cc(C)n4)CC3)cc2)n1C [Example 130, N-{4-[4-(4,6-Dimethyl-pyridin-2-yl)-piperazin-1-yl]-phenyl}-2-(5-methoxymethyl-1-methyl-3-phenyl-1H-pyrrol-2-yl)-2-oxo-acetamide] | –
< 1 µg/mL | < 1 µg/mL | < 1 µg/mL | < 1 µg/mL | < 1 µg/mL | < 1 µg/mL | < 1 µg/mL | < 1 µg/mL | < 1 µg/mL | < 1 µg/mL | < 1 µg/mL | < 1 µg/mL | Cc1cc(-c2ccccc2)c(C(=O)C(=O)Nc2ccc(N3CCN(C(C)C(C)C)CC3)cc2)n1C (stereo not drawn) [Example 150, 2-(1,5-Dimethyl-3-phenyl-1H-pyrrol-2-yl)-N-{4-[4-(1,2-dimethyl-propyl)-piperazin-1-yl]-phenyl}-2-oxo-acetamide] | –
– | – | – | – | – | – | – | – | – | – | – | – | COC(=O)Cn1c(C)cc(-c2ccccc2)c1C(=O)C(=O)Nc1ccc(N2CCN(c3cc(C)cc(C)n3)CC2)cc1F [Example 111, (2-{4-[4-(4,6-Dimethyl-pyridin-2-yl)-piperazin-1-yl]-2-fluoro-phenylaminooxalyl}-5-methyl-3-phenyl-pyrrol-1-yl)-acetic acid methyl ester] | MIC grade, A. niger (Aspergillus niger [1]): 3 (A grade of 3 represents an MIC of less than 1 mg/L); MIC grade, A. fumigatus [2]: 3 (A grade of 3 represents an MIC of less than 1 mg/L); MIC grade, A. terreus (Aspergillus terreus AT4 [3]): 3 (A grade of 3 represents an MIC of less than 1 mg/L); MIC grade, A. terreus 49 (Aspergillus terreus AT49 [4]): 3 (A grade of 3 represents an MIC of less than 1 mg/L); MIC grade, A. fumigatus 210 [5]: 3 (A grade of 3 represents an MIC of less than 1 mg/L); MIC grade, A. flavus (Aspergillus flavus [6]): 2 (A grade of 2 represents an MIC of from 1 to 10 mg/L); MIC grade, A. niger (Aspergillus niger [7]): 3 (A grade of 3 represents an MIC of less than 1 mg/L); MIC grade, A. fumigatus [8]: 3 (A grade of 3 represents an MIC of less than 1 mg/L); MIC grade, A. terreus (Aspergillus terreus AT4 [9]): 3 (A grade of 3 represents an MIC of less than 1 mg/L); MIC grade, A. terreus 49 (Aspergillus terreus AT49 [10]): 2 (A grade of 2 represents an MIC of from 1 to 10 mg/L); MIC grade, A. fumigatus 210 [11]: 3 (A grade of 3 represents an MIC of less than 1 mg/L); MIC grade, A. flavus (Aspergillus flavus [12]): 2 (A grade of 2 represents an MIC of from 1 to 10 mg/L)
< 1 µg/mL | < 1 µg/mL | < 1 µg/mL | < 1 µg/mL | 1 to 10 µg/mL (≈ 2.15 to 21.5 µM) | < 1 µg/mL | < 1 µg/mL | 1 to 10 µg/mL (≈ 2.15 to 21.5 µM) | 1 to 10 µg/mL (≈ 2.15 to 21.5 µM) | > 10 µg/mL | 1 to 10 µg/mL (≈ 2.15 to 21.5 µM) | > 10 µg/mL | COCCn1c(C)cc(-c2ccccc2)c1C(=O)C(=O)Nc1ccc(N2CCOCC2)cc1F [Example 117, N-(2-Fluoro-4-morpholin-4-yl-phenyl)-2-[1-(2-methoxy-ethyl)-5-methyl-3-phenyl-1H-pyrrol-2-yl]-2-oxo-acetamide] | –
< 1 µg/mL | < 1 µg/mL | < 1 µg/mL | < 1 µg/mL | < 1 µg/mL | 1 to 10 µg/mL (≈ 1.76 to 17.6 µM) | < 1 µg/mL | < 1 µg/mL | 1 to 10 µg/mL (≈ 1.76 to 17.6 µM) | 1 to 10 µg/mL (≈ 1.76 to 17.6 µM) | < 1 µg/mL | > 10 µg/mL | CSCCn1c(C)cc(-c2ccccc2)c1C(=O)C(=O)Nc1ccc(N2CCN(c3cc(C)cc(C)n3)CC2)cc1 [Example 133, N-{4-[4-(4,6-Dimethyl-pyridin-2-yl)-piperazin-1-yl]-phenyl}-2-[5-methyl-1-(2-methylsulfanyl-ethyl)-3-phenyl-1H-pyrrol-2-yl]-2-oxo-acetamide] | –
– | – | – | – | – | – | – | – | – | – | – | – | CCOCCCn1c(C)cc(-c2ccccc2)c1C(=O)C(=O)Nc1ccc(N2CCN(c3cc(C)cc(C)n3)CC2)cc1 [Example 136, N-{4-[4-(4,6-Dimethyl-pyridin-2-yl)-piperazin-1-yl]-phenyl}-2-[1-(3-ethoxy-propyl)-5-methy-3-phenyl-1H-pyrrol-2-yl]-2-oxo-acetamide] | MIC grade, A. niger (Aspergillus niger [1]): 3 (A grade of 3 represents an MIC of less than 1 mg/L); MIC grade, A. fumigatus [2]: 3 (A grade of 3 represents an MIC of less than 1 mg/L); MIC grade, A. terreus (Aspergillus terreus AT4 [3]): 2 (A grade of 2 represents an MIC of from 1 to 10 mg/L); MIC grade, A. terreus 49 (Aspergillus terreus AT49 [4]): 3 (A grade of 3 represents an MIC of less than 1 mg/L); MIC grade, A. fumigatus 210 [5]: 3 (A grade of 3 represents an MIC of less than 1 mg/L); MIC grade, A. flavus (Aspergillus flavus [6]): 3 (A grade of 3 represents an MIC of less than 1 mg/L); MIC grade, A. niger (Aspergillus niger [7]): 2 (A grade of 2 represents an MIC of from 1 to 10 mg/L); MIC grade, A. fumigatus [8]: 2 (A grade of 2 represents an MIC of from 1 to 10 mg/L); MIC grade, A. terreus (Aspergillus terreus AT4 [9]): 2 (A grade of 2 represents an MIC of from 1 to 10 mg/L); MIC grade, A. terreus 49 (Aspergillus terreus AT49 [10]): 2 (A grade of 2 represents an MIC of from 1 to 10 mg/L); MIC grade, A. fumigatus 210 [11]: 2 (A grade of 2 represents an MIC of from 1 to 10 mg/L); MIC grade, A. flavus (Aspergillus flavus [12]): 2 (A grade of 2 represents an MIC of from 1 to 10 mg/L)

Structure (SMILES) | MIC (Aspergillus niger [1]) | MIC [2] | MIC (Aspergillus terreus AT4 [3]) | MIC (Aspergillus terreus AT49 [4]) | MIC [5] | MIC (Aspergillus flavus [6]) | MIC (Aspergillus niger [7]) | MIC [8] | MIC (Aspergillus terreus AT4 [9]) | MIC (Aspergillus terreus AT49 [10]) | MIC [11] | MIC (Aspergillus flavus [12]) | other results
CCCCOCn1c(C)cc(-c2ccccc2)c1C(=O)C(=O)Nc1ccc(N2CCN(c3cc(C)cc(C)n3)CC2)cc1 [Example 135, 2-(1-Butoxymethyl-5-methyl-3-phenyl-1H-pyrrol-2-yl)-N-{4-[4-(4,6-dimethyl-pyridin-2-yl)-piperazin-1-yl]-phenyl}-2-oxo-acetamide] | 1 to 10 µg/mL (≈ 1.72 to 17.2 µM) | < 1 µg/mL | 1 to 10 µg/mL (≈ 1.72 to 17.2 µM) | > 10 µg/mL | 1 to 10 µg/mL (≈ 1.72 to 17.2 µM) | > 10 µg/mL | > 10 µg/mL | > 10 µg/mL | > 10 µg/mL | > 10 µg/mL | > 10 µg/mL | > 10 µg/mL | –
